Patent US6774220B1, “Compounds having lectinic properties and their biological applications” (Association pour le Développement de la Biothérapie …, priority 1995, dated 2004)
Where two headings read alike, the source gives them in different places. Marks after values point to notes of the source that are not given here.

Tests used:
[1] = molecular target: oligopeptide 81-95 (SEQ ID NO: 6) (Homo sapiens, UniProt P08729); assay: Antibody titre against oligopeptide antigen 81-95; type: binding
Text: (§1) By operating according to standard techniques, the formation of antibodies against the SEQ ID NO: 5 peptides or SEQ ID NO:6 is induced. The specific characters of these antibodies is set out in Table 7.

[2] = molecular target: oligopeptide 41-55 (SEQ ID NO: 5) (Homo sapiens, UniProt P08729); assay: Antibody titre against oligopeptide antigen 41-55; type: binding
Text: as §1

[3] = test system: Ost. Sarc. ESS (SCLs excreted by the osteogenic sarcoma ESS); assay: Antibody titre against SCL excreted by osteogenic sarcoma ESS; type: binding
Text: as §1

murine sarcolectin = assay: Action of simple sugars on the agglutination of cells by sarcolectin; type: cell-based, Swiss mice; details: in the presence of 2 agglutinating units of murine sarcolectin; H9 cells
Protocol: A wide variety of cells originating either from rodents or from primates was tested. Agglutination is obtained by suspending the cells in an MEM medium in the absence of serum. The test may be carried out in two ways, either in the presence of a sarcolectin dilution range in a base 2 geometric progression, by identifying the concentration at which 50% of the cells are agglutinated, or by identifying the affinity of the various sugars for the cell receptors.
In the example shown, murine sarcolectin originating from the ascitic fluid of Swiss mice grafted with Crocker TG180 sarcoma contains 32 units agglutinating the H9 cells which originate from a T lymphoma, fixed by 10% formaldehyde.
The table below illustrates the affinity of the receptors for the various sugars in the presence of 2 agglutinating units.

TG-180 tumour cells = assay: Antitumour action on grafted TG-180 ascitic tumour
Protocol: In order to test the antitumour capacity of SCL inhibiting sugars, TG-180 tumour cells originating from a tumour resistant to chemical metabolic inhibitors was grafted. In a concentration of 3×10^6 cells injected i.p. into 20 gr Swiss mice, an ascitic tumour is obtained which is detectable in 10 days and kills practically 100% of the animals in 21-25 days.
In parallel series, the various groups of animals were treated 3 days after inoculation, either with a specific sugar (glucosamine, lactose, galacturonate, N.A.N.A., neuramine-lactose) in a 5 to 10% solution, the sugar concentration being 100 mM, or with the same treatment in association with an injection of immuno-stimulant (extract of corynebacterium parvum, Merieux, France), in a dose of 200 g/mouse, or interferon, or both.
4 groups of mice per experiment were used.
They are assessed by the percentage of tumours that appeared on the 10th day, the mean survival time of the animals (MST) in. days, and the final survival (as a percentage).

[4] = test system: encephalomyocarditis virus (EMC); assay: Protection of IFN against the encephalomyocarditis virus in Swiss mice, with SCL inhibiting sugars; type: in vivo; details: EMC virus i.p.
Protocol: The model used is the encephalomyocarditis virus (EMC) which kills mice in practically all cases after rather varying but relatively short incubation periods.
Male mice (average weight: […], aged 8 to 10 weeks) were injected i.p. with sodium galacturonate, glucosamine and N-acetylneuraminic acid (5 to 10% solutions containing 100 mM sugar). 24 hours afterwards, one hundred lethal doses (50%) of EMC virus are injected by the same route. After one hour, murine interferon is injected (in a dose of 20,000 units in 0.5 ml). Table 3 gives the number of animals surviving out of the total tested, the percentage and statistical significance.

T (lympho) cells = assay: Stimulation over 24 hours of the synthesis of DNA in T (lympho) cells; type: cell-based
Protocol: XI Stimulation over 24 hours of the synthesis of DNA in T (lympho) cells

[5] = test system: action of interferon (antiviral state against vesicular stomatitis virus) in mouse L cells; type: cell-based
[6] = single agent (+MEM, or IFN in reference group)
[7] = IL2 (100 u) +SCL + inhibitor (NANA 0.75 mmol.; oligo 41-55 3 μγ/ml)

41-55 (GLGASRPRVAVRSAY)
antibody titre, oligopeptide 81-95 as antigen [1]: <200
antibody titre, oligopeptide 41-55 as antigen [2]: >12 600
antibody titre, Ost. Sarc. ESS as antigen [3]: >12 800

81-95 (DPFSQRVRQEESEQI)
antibody titre, oligopeptide 81-95 as antigen [1]: >12 800
antibody titre, oligopeptide 41-55 as antigen [2]: <200

OC[C@H]1OC(O)[C@H](O)[C@@H](O)[C@H]1O (some centres unmarked) [D galactose]
affinity (murine sarcolectin): 0.28 mM

CC(=O)N[C@H]1[C@H]([C@H](O)[C@H](O)CO)OC(O)(C(=O)O)C[C@@H]1O (some centres unmarked) [N.A.N.A, N-acetylneuraminic acid]
Final survival (%) (TG-180 tumour cells; +CP): (53) %
Final survival, Number (TG-180 tumour cells; +CP): 8
MST (mean survival time) (TG-180 tumour cells; +CP): 69 ± 12 days
Tumours on 10th day (%) (TG-180 tumour cells; +CP): 40%
Tumours on 10th day, number (TG-180 tumour cells; +CP): 6
Final survival (%) (TG-180 tumour cells; +CP +IFN): (36) %
Final survival, Number (TG-180 tumour cells; +CP +IFN): 11
MST (mean survival time) (TG-180 tumour cells; +CP +IFN): 70 ± 12 days
Tumours on 10th day (%) (TG-180 tumour cells; +CP +IFN): 43%
Tumours on 10th day, number (TG-180 tumour cells; +CP +IFN): 13
Final survival (%) (TG-180 tumour cells; +IFN): (13) %
Final survival, Number (TG-180 tumour cells; +IFN): 4
MST (mean survival time) (TG-180 tumour cells; +IFN): 39 ± 12 days
Tumours on 10th day (%) (TG-180 tumour cells; +IFN): 16%
Tumours on 10th day, number (TG-180 tumour cells; +IFN): 5
Final survival (%) (TG-180 tumour cells; agent alone): (0) %
Final survival, Number (TG-180 tumour cells; agent alone): 0
MST (mean survival time) (TG-180 tumour cells; agent alone): 24 ± 6 days
Tumours on 10th day (%) (TG-180 tumour cells; agent alone): 34%
Tumours on 10th day, number (TG-180 tumour cells; agent alone): 9
number of animals surviving out of the total number tested [4, 6]: 0/15
percentage surviving [4, 6]: 0%
number of animals surviving out of the total number tested ([4]; sugar +IFN (20,000 units)): 8/15c
percentage surviving ([4]; sugar +IFN (20,000 units)): 53%
affinity (murine sarcolectin): 0.0075 mM
effect on the stimulation of DNA synthesis by SCL (in words) (T (lympho) cells; 24 hours): inhibited
synthesis of DNA, EXP. N° 1 (T (lympho) cells; [7]): 4,657 ± 214.78
synthesis of DNA, EXP. N° 2 (T (lympho) cells; [7]): 27,133 ± 1771

OC[C@H]1O[C@@H](O[C@H]2[C@H](O)[C@@H](O)[C@@H](O)O[C@@H]2CO)[C@H](O)[C@@H](O)[C@H]1O [α lactose]
affinity (murine sarcolectin): 0.125 mM

OC[C@H]1O[C@@H](O[C@H]2[C@H](O)[C@@H](O)[C@H](O)O[C@@H]2CO)[C@H](O)[C@@H](O)[C@H]1O [β lactose]
affinity (murine sarcolectin): 0.25 mM

B1: recombinant SCL: SCL expressed in mouse L cells transfected with plasmid containing the cloned gene, hexamethasone-inducible promoter (protein)
chain: SIHFSSPVFTSRSAAFSGRGAQVRLSSARPGGLGSSSLYGLGASRPRVAVRSAYGGPVGAGIREVTINQSLLAPLRLGADPFSQRVRQEESEQIKTLNNKFASFIDKVRFLEQQNKLLETKWTLLQEQKSAKSSRLPDIFEAQIAGLRGQLEAMQVDGGRLEQGLRTMQDVVEDFKNKYEDEINRRTAAENEFVVLKKDVDAAYMSKVELEAKVDALNDEINFLRTLNETELTELQSQISDTSVVLSMDNSRSLDLDGIIAEVKAQYEEMAKCSRAEAEAWYQTKFETLQAQAGKHGDDLRNTRNEISEMNRAIQRLQAEIDNIKNQRAKLEAAIAEAEERGELALKDARAKQEELEAALQRAKQDMARQLREYQELMSVKLALDIEIATYRKLLEGEESRLAGDGVGAANISVMNSTGGSSSGGGIGLTLGGTMGSNALSFSSSAGPGLLKAYSIRTASASRRSTRD
limit dilution of SCL at which the action of the interferon was completely blocked ([5]; 200 IU of interferon for 5 hours, then SCL in base 2 dilutions): 1/32
IFN titer ([5]; A: IFN + SCL induced by hexamethasone): <2 U
IFN titer ([5]; A: IFN + SCL non-induced): >5120 U
SCL titer (concentration of SCL which inhibits by 100% the antiviral state) ([5]; B: IFN 200 U + SCL): 32 U. 50%*
effect on antiviral state (in words) ([5]; interferon 5 hours, then SCL 18 hours): blocks the state of the antiviral effect
